Results as given in patent US8741957B2, “Alpha-aminoamide derivatives useful in the treatment of cognitive disorders” (priority 2006, dated 2014).

Experiments:
[1] = in vivo; cited from earlier work
[2] = literature reports; cited from earlier work
[3] = tested on: early-mild Parkinson's Disease; settings: after eight weeks (end of study); cited from earlier work
mild PD patients = settings: in comparison to levodopa; cited from earlier work
[4] = tested on: early and moderate-to-advanced PD patients; settings: 1 mg dose once daily; cited from earlier work
[5] = tested on: patients with PD-related Dementia (PDD); settings: cited from earlier work
animal models = settings: cited from earlier work
[6] = tested on: non demented patients with early PD; assay: UPDRS motor scores in six month double blind clinical trial; assay type: in vivo, human; settings: safinamide associated to a dopamine agonist, compared to the group treated with the DA alone
Experimental: A double blind Phase III study, placebo controlled, parallel-group, randomized, multinational was conducted comparing 2 oral doses of Safinamide versus placebo. The placebo group was constituted by patients treated with a stable dose of a dopamine agonist. The dopamine agonist could have been any of the ones used in clinical practice, according to clinical procedures in the different countries. 269 patients (˜90 per arm), were enrolled and treated for six months. Primary efficacy variable was UPDRS III. All the randomized patients were tested for cognitive impairment with Cogtest at Screening, Baseline, week 12 and week 24 (or early discontinuation).

MAO-A = target: T1, MAO-A (Homo sapiens, UniProt P21397); settings: cited from earlier work
T1 sequence (P21397 1-527): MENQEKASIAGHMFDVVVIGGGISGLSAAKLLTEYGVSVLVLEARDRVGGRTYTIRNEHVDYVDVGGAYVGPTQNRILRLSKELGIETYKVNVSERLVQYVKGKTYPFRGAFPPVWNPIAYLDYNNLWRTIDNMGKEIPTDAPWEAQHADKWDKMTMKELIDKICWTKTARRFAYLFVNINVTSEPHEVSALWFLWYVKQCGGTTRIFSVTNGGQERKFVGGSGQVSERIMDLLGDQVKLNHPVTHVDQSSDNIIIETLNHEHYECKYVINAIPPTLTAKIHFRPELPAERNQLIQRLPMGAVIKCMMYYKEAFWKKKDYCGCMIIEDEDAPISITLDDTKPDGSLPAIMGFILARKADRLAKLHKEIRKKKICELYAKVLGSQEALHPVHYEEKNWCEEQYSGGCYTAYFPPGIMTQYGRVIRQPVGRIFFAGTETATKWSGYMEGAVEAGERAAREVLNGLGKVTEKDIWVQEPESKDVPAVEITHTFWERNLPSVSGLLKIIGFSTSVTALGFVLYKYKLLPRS

MAO-B = target: T2, MAO-B (Homo sapiens, UniProt P27338); settings: cited from earlier work
T2 sequence (P27338 1-520): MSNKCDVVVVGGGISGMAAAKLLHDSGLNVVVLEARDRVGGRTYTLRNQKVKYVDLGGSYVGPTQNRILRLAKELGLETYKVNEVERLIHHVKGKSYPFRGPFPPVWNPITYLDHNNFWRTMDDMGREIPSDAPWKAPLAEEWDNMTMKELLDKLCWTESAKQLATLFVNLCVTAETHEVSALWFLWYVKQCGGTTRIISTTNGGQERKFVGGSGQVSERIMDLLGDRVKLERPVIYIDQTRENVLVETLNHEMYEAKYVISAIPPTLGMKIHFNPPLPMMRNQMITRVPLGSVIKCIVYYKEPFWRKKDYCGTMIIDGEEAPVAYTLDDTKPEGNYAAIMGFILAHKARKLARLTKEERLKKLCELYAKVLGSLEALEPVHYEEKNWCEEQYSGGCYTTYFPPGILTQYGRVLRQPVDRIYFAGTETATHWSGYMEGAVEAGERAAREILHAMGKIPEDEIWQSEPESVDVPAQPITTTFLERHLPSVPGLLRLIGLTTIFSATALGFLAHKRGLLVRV

[7] = tested on: non demented patients with early PD; assay: Cogtest cognitive battery in double blind Phase III study, safinamide added to a dopamine agonist; assay type: in vivo, human
Source text: Cogtest® (Computerized Cognitive Test Battery for Clinical Trials) is designed to provide with the highest quality computerised cognitive tests for use in clinical trials. All cognitive tests in the Cogtest® battery have been developed by academic neuropsychologists and clinical trials specialists. This ensures that the most recent developments in cognitive neuroscience, including neurophysiological, functioning neuroimaging and pharmacogenic evidence are incorporated into the Cogtest® library of procedures and into pharmaceutical clinical trials.
The Cogtest PD battery has been prepared, based on a review of the available tests in the Cogtest library and selection of those tests that would most usefully comprise a battery suitable for Parkinson's Disease. However the same tasks are used in other pathological conditions for testing the two main domains of cognition, reaction time and power.
The battery takes from 20-30 minutes to administer, and is applicable across different cultures and countries. The following tests were included in the battery:
The Auditory Number Sequencing task is a test of working memory and executive function. The participant will be presented with clusters of numbers (e.g. 936) of increasing length (from 2 digits to a maximum of 8 digits). They will be asked to tell the tester the numbers in order, from lowest to highest. […]
This test is similar to the paper-and-pencil ‘cancellation’ tests or the cross-out’ subtest of the WAIS-III, where subjects are required to crossout target stimuli embedded among distracters. […] The variables measured are: Total Experiment Time (from the end of the ‘Get ready’ screen to the end of the last response, in msec), Total Correct responses, Total Perseverative Errors (erroneous pressing of the shape that was the target of the last set, but is not for this set), Strategic efficiency variable (the cumulative distance of territory transversed, i.e., between the location of correct presses on screen for each set) according to literature (Weintraub, S., & Mesulam, M. M. (1987). Archives of Neurology 44 621-625). […]

cholinesterase = settings: cited from earlier work
glutamate receptors = settings: cited from earlier work
PD patients = settings: after 3 month treatment; cited from earlier work
normal rats = settings: safinamide per se; cited from earlier work
glutamate release = settings: in condition of pathological glutamate overflow; cited from earlier work

## CN1CCc2cccc3c2[C@H]1Cc1ccc(O)c(O)c1-3 [apomorphine]
[1]
  reaction times in visual-spatial working memory (WM): negative effect

## N[C@@H](Cc1ccc(O)c(O)c1)C(=O)O [levodopa]
[2]
  effect on cognition: no effect on cognition, or even impairment

## CCCN1C[C@H](CSC)C[C@@H]2c3cccc4[nH]cc(c34)C[C@H]21 [pergolide]
[3]
  cognitive test scores: without showing amelioration

## CCCN[C@H]1CCc2nc(N)sc2C1 [pramipexole]
Mild PD patients
  short term verbal memory and attentional-executive functions: impaired
  verbal fluency: slightly but significantly worsened

## C#CCN[C@@H]1CCc2ccccc21 [rasagiline]
[4]
  occurrence of cognitive and behavioural adverse events: without significantly increasing
  symptoms of PD, including motor fluctuations: improved

## CCN(C)C(=O)Oc1cccc([C@H](C)N(C)C)c1 [rivastigmine]
[5]; in vivo
  subjective worsening of tremor reported: 1.7%
[5]; most commonly due to nausea
  patients dropped out due to adverse events: 17%
[5]; versus placebo, differences were moderate
  response on primary (ADAS-Cog, Clinical Global Impression of Change) and all secondary outcome measures: responded better

## C[C@H](NCc1ccc(OCc2cccc(F)c2)cc1)C(N)=O [safinamide, (S)-(+)-2-[4-(3-fluorobenzyloxy)-benzylamino]-propanamide]
Animal models
  long term neuroprotective effects: demonstrated
[6]
  UPDRS scores (motor symptoms): significantly ameliorate
MAO-A
  activity on MAO-A: devoid of activity
MAO-B
  MAO-B inhibition: selective MAO-B inhibitor
[7]; both groups, low and high dose of safinamide, with a stable dose of a DA, three and six months evaluation times, most marked for executive function
  several cognitive variables (Cogtest), change from baseline: significant improvement from baseline
[7]; both treated groups (low and high dose of safinamide), from baseline to both three and six months
  Strategic Target Detection test, observed score (Z-score): significant improvement
[7]; safinamide associated to a dopamine agonist, check at three and six months after start of treatment
  cognition compared with DA alone (control group) and with pretreatment: ameliorate cognitive worsening observed in controls and/or improve cognition as compared to pretreatment
cholinesterase
  cholinesterase inhibition: not cholinesterase inhibitors
Glutamate receptors
  affinity for any of the glutamate receptors: no affinity
PD patients
  UPDRS scores: significantly ameliorated
Normal rats
  cognition in the rat passive avoidance test: does not ameliorate cognition
Glutamate release
  glutamate release inhibition: glutamate release inhibitor
